Laboratory results reported in US20040023840A1, “Combination of organic compounds” (priority 2003, published 2004).
Like-named read-outs stand apart in the source and are kept apart here.

What was measured:
[1] = tested on: SHR with endothelial dysfunction; test: Survival of SHR with chronic NO synthase blockade (L-NAME), endothelial dysfunction model; type: in vivo, rat; details: for survival rate: SHR + L-NAME 12 weeks; for kidney lesions / proteinuria: low doses of valsartan and enalapril
Experimental: Male 20-24 week-old SHR, purchased from RCC Ldt (Fullingsdorf, Switzerland), are maintained in a temperature- and light-controlled room with free access to rat chow (Nafag 9331, Gossau, Switzerland) and tap water. The experiment is p rformed in accordance with the NIH guidelines and approved by the Canton Veterinary office (Bew 161, Kantonales V t rin{overscore (a)}ramt, Liestal, Switzerland). All rats are treated with the NO synthase inhibitor L-NAME (Sigma Chemicals) administered in drinking water (50 mg/l) for 12 weeks. The average daily dose of L-NAME calculated from the water consumed was 2.5 mg/kg/d (range 2.1-2.7).
(§1) The rats are divided into 5 groups: group 1, control (n=40); Group 2, valsartan (val5, 5 mg/kg/d; n=40); Group 3, enalapril (ena1, 1 mg/kg/d; n=30); Group 4, a combination (ena1val5) of enalapril (1 mg/kg/d) and valsartan (5 mg/kg/d); n=30) and Group 5, valsartan (val50, 50 mg/kg/d; n=30). The drugs are administered in drinking fluid. […] The pressor effect of Ang II at […] obtained in controls normotensive rats is reduced by 49% and 73% after treatment with valsartan 5 and 50 mg/kg/d, respectively (Gervais et al. 1999). The response to Ang I injected in Wistar Kyoto rats pretreated with enalapril 1 mg/kg/d or valsartan 5 mg/kg/d is similar.
Body weight is measured every week. Systolic blood pressure and heart rate are recorded by tail cuff plethysmography 3 and 2 weeks before starting the study and at 2 weeks after drug administration. Urine is collected over a 24 hour period from rats kept in individual (metabolic) cages the week before starting treatment and at weeks 4 and 12 for volume measurement and protein, creatinine, sodium and potassium determination using standard laboratory methods. At the same time points, blood samples are withdrawn from the retro-orbital plexus (maximum 1 ml) for creatinine, Na^+ and K^+ assays.
Ten rats from each group are sacrificed at 4 weeks for collection of kidney and heart for morphological analysis. The remaining rats are sacrificed at 12 weeks. Cardiac and kidney weight is recorded. Terminal blood sampling is performed in 5% EDTA at 4 (morphometry study) and 12 (end of the study) weeks for aldosterone, determination by radioimmunoassay using a DPC coat-a-count aldosterone-RIA kit (Bühlmann, Switzerland).
All data are expressed as mean±SEM. Statistical analysis is performed using a one-way ANOVA, followed by a Duncan's multiple range test and a Newman-Keuls test, 7 for comparison between the different groups. Results with a probability value of less than 0.05 are deemed statistically significant.

[2] = tested on: response to Ang I; test: Response to Ang I injected in pretreated Wistar Kyoto rats; type: in vivo, rat; details: Wistar Kyoto rats pretreated with enalapril 1 mg/kg/d or valsartan 5 mg/kg/d; the two compared
Experimental: as §1

[3] = tested on: pressor effect of Ang II; details: Ang II at 1 mg/kg, normotensive rats, cited from earlier work
[4] = non-blood pressure reducing doses in drinking fluid: valsartan 5 mg/kg/d, enalapril 1 mg/kg/d, or both combined

Compound | survival rate [1, 4] | kidney lesions ([1]; SHR + L-NAME) | proteinuria ([1]; SHR + L-NAME) | response to Ang I [2] | reduction of pressor effect of Ang II ([3]; valsartan 5 mg/kg/d (Gervais et al. 1999)) | reduction of pressor effect of Ang II ([3]; valsartan 50 mg/kg/d (Gervais et al. 1999)) | survival rate ([1]; high dose valsartan 50 mg/kg/d in drinking fluid) | systolic blood pressure ([1]; SHR + L-NAME, valsartan 50 mg/kg, increase in blood pressure significantly attenuated)
CCOC(=O)[C@H](CCc1ccccc1)N[C@@H](C)C(=O)N1CCC[C@H]1C(=O)O [enalapril] | 55% | no reduction | no decrease | similar | – | – | – | –
CCCCC(=O)N(Cc1ccc(-c2ccccc2-c2nnn[nH]2)cc1)[C@H](C(=O)O)C(C)C [valsartan] | 67% | no reduction | no decrease | similar | 49% | 73% | 95% | above 250 mmHg
